One assay relates to Human Jurkat-E6-1 cells. Put plainly: Detection of IL-2 production by Jurkat cells using ELISA. The format is cell-based. To be noted: anti-CD3/anti-CD28 stimulation 24 hours, tested compound 1.0 μM, read-out: Percentage of the amount of IL-2 secreted by compound treated vs DMSO-treated cells. The essentials: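 Jurkat E6-1 cells were pre-incubated with compound for 30 min at 37 °C, then stimulated 24 h on plate-bound anti-CD3 plus soluble anti-CD28. Secreted IL-2 in supernatant was measured by sandwich ELISA (450 nm) against a standard curve and expressed as % of DMSO-treated cells.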

In another assay the target is HPK1 (Homo sapiens, UniProt Q92918). Put plainly: HPK1 kinase activity inhibition test (ADP-Glo, luminescence). The format is biochemical. The following applies: 2 μM ATP, 5 nM HPK1, read-out: IC50, inhibitory effects on HPK1 kinase activity. Summed up:
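Autophosphorylation assay without added substrate: HPK1 preincubated with compound 10 min at 25 °C, then ATP added for 60 min at 25 °C; final DMSO 0.5%. ADP measured by ADP-Glo luminescence; IC50 from four-parameter nonlinear fit.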

The structures appear in SMILES notation.

Broadly, the IC50 is the concentration at which inhibition is half-maximal.

Sequence of HPK1 (Q92918 whole entry): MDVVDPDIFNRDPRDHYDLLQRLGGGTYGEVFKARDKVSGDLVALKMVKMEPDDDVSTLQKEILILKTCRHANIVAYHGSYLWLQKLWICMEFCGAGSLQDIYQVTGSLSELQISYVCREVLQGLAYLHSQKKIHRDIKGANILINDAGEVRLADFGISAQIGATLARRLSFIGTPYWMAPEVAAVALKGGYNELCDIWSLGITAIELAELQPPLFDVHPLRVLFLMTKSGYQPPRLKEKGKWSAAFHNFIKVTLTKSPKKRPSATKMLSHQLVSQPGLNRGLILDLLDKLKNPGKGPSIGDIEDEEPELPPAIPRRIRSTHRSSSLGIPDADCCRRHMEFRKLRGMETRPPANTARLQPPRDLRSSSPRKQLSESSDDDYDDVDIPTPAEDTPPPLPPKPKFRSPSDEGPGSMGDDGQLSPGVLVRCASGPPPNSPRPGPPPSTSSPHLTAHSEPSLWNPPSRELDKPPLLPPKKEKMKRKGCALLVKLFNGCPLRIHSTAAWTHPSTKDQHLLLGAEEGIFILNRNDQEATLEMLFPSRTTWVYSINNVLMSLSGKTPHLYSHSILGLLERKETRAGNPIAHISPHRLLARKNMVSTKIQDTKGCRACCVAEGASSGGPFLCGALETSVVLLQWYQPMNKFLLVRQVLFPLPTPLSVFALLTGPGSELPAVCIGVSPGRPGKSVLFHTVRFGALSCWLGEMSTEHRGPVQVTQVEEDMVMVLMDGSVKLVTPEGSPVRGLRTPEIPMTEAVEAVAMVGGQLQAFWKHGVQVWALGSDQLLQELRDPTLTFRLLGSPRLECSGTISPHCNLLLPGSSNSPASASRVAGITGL

Consider `CN1CCN(c2ncc3cc2OCCCOc2cccc(F)c2-c2cc4c-3n[nH]c4cn2)CC1` [Compound 3, 16-fluoro-5-(4-methylpiperazin-1-yl)-7,11-dioxa-4,19,22,23-tetraazapentacyclo[16.5.2.1^2,6.0^12,17.0^21,24]hexacosa-1(23),2(26),3,5,12,14,16,18,20,24-decaene], for which the activity at 1 µM in the assay on Human Jurkat-E6-1 cells came out at 823%. Further, the IC50 at HPK1 was no more than 5 nM.

On to `CN1CCN(c2ccc3cc2OCCCOc2cccc(F)c2-c2cc4c-3n[nH]c4cn2)CC1` [Compound 6, 16-fluoro-5-(4-methylpiperazin-1-yl)-7,11-dioxa-19,22,23-triazapentacyclo[16.5.2.1^2,6.0^12,17.0^21,24]hexacosa-1(23),2(26),3,5,12,14,16,18,20,24-decaene], for which the activity at 1 µM in the assay on Human Jurkat-E6-1 cells was found to be 542%. At HPK1, the IC50 was no more than 5 nM.

As to `CN1CCN(c2ccc3cc2OCCOCc2cccc(F)c2-c2cc4c-3n[nH]c4cn2)CC1` [Compound 9, 16-fluoro-5-(4-methylpiperazin-1-yl)-7,10-dioxa-19,22,23-triazapentacyclo[16.5.2.1^2,6.0^12,17.0^21,24]hexacosa-1(23),2(26),3,5,12,14,16,18,20,24-decaene], the activity at 1 µM with Human Jurkat-E6-1 cells stood at 568%. In addition, the IC50 at HPK1 is no more than 5 nM.

The record behind these values is patent publication US20240383911A1, “AZAINDAZOLE MACROCYCLE COMPOUNDS AND USES THEREOF” (BROADENBIO CO., LTD, priority 2021, published 2024).
